Biological target: T1, PD-1/PD-L1 (Homo sapiens, UniProt Q9NZQ7)
T1 construct: made in house; host or cells: HEK293T
Assay: PD-1/PD-L1 Homogenous Time-Resolved Fluorescence (HTRF) binding assay
Conditions: PD-L1-His 10 nM, PD-1-Ig 20 nM; value given as range class; read-out: Range or IC50
Summary of the method: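 Additional pairs run were PD-1-Ig with PD-L2-His (20 & 5 nM) and CD80-His with PD-L1-Ig (100 & 10 nM), all human proteins. Buffer: dPBS plus 0.1% BSA, 0.05% Tween-20; time-resolved FRET read-out via 1 nM Eu-cryptate anti-Ig and 20 nM APC anti-His, final concentrations.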

T1 sequence (Q9NZQ7 with tags, fused parts or gaps): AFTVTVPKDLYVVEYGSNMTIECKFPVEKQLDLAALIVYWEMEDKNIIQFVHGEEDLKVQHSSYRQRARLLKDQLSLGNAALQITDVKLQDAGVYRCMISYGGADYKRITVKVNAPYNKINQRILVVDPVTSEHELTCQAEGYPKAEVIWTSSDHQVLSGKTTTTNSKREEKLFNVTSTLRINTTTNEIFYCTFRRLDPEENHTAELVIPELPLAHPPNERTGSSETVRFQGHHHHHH

| Compound | IC50 [nM] |
| --- | --- |
| Cc1c(COc2cc(OCc3cncc(C#N)c3)c(CN3CCCC[C@H]3C(=O)O)cc2Cl)cccc1-c1cccc(OCCCN2CC[C@@H](F)C2)c1C [Example 3057, (S)-1-(5-chloro-2-((5-cyanopyridin-3-yl)methoxy)-4-((3′-(3-((R)-3-fluoropyrrolidin-1-yl)propoxy)-2,2′-dimethyl-[1,1′-biphenyl]-3-yl)methoxy)benzyl)piperidine-2-carboxylic Acid] | 0.21 to 10 |
| Cc1c(COc2cc(OCc3cncc(C#N)c3)c(CN3CCCC[C@H]3C(=O)O)cc2Cl)cccc1-c1cccc(OCCCN2CCOC(C(F)(F)F)C2)c1C (stereo partly drawn) [Example 3058, (2S)-1-(5-chloro-2-((5-cyanopyridin-3-yl)methoxy)-4-((2,2′-dimethyl-3′-(3-(2-(trifluoromethyl)morpholino)propoxy)-[1,1′-biphenyl]-3-yl)methoxy)benzyl)piperidine-2-carboxylic Acid] | 0.21 to 10 |
| Cc1c(COc2cc(OCc3cncc(C#N)c3)c(CN3CCCC[C@H]3C(=O)O)cc2Cl)cccc1-c1cccc(C(=O)N2CCN(C)CC2)c1C [Example 3059, (S)-1-(5-chloro-2-((5-cyanopyridin-3-yl)methoxy)-4-((2,2′-dimethyl-3′-(4-methylpiperazine-1-carbonyl)-[1,1′-biphenyl]-3-yl)methoxy)benzyl)piperidine-2-carboxylic Acid] | 100 to 2000 |
| Cc1c(COc2cc(OCc3cncc(C#N)c3)c(CN3CCCC[C@H]3C(=O)O)cc2Cl)cccc1-c1cccc(C(=O)NCCN2CC[C@@H](O)C2)c1C [Example 3060, (S)-1-(5-chloro-2-((5-cyanopyridin-3-yl)methoxy)-4-((3′-((2-((R)-3-hydroxypyrrolidin-1-yl)ethyl)carbamoyl)-2,2′-dimethyl-[1,1′-biphenyl]-3-yl)methoxy)benzyl)piperidine-2-carboxylic Acid] | 10 to 100 |
| Cc1c(COc2cc(OCc3cncc(C#N)c3)c(CNCCCN(C)C)cc2Cl)cccc1-c1cccc(CNCCCN(C)C)c1 [Example 3062, 5-((4-chloro-2-(((3-(dimethylamino)propyl)amino)methyl)-5-((3′-(((3-(dimethylamino)propyl)amino)methyl)-2-methyl-[1,1′-biphenyl]-3-yl)methoxy)phenoxy)methyl)nicotinonitrile] | 100 to 2000 |
| Cc1c(COc2cc(OCc3cncc(C#N)c3)c(CO)cc2Cl)cccc1-c1cc(OCCCN2CC[C@@H](O)C2)cc(OCCCN2CC[C@@H](O)C2)c1 [Example 3063, 5-((5-((3′,5′-bis(3-((R)-3-hydroxypyrrolidin-1-yl)propoxy)-2-methyl-[1,1′-biphenyl]-3-yl)methoxy)-4-chloro-2-(hydroxymethyl)phenoxy)methyl)nicotinonitrile] | 2010 to 10000 |
| Cc1c(COc2cc(OCc3cncc(C#N)c3)c(CN[C@@](C)(CO)C(=O)O)cc2Cl)cccc1-c1cc(OCCCN2CC[C@@H](O)C2)cc(OCCCN2CC[C@@H](O)C2)c1 [Example 3064, (S)-2-((4-((3′,5′-bis(3-((R)-3-hydroxypyrrolidin-1-yl)propoxy)-2-methyl-[1,1′-biphenyl]-3-yl)methoxy)-5-chloro-2-((5-cyanopyridin-3-yl)methoxy)benzyl)amino)-3-hydroxy-2-methylpropanoic Acid] | 2010 to 10000 |
| Cc1c(COc2cc(OCc3cncc(C#N)c3)c(CN[C@@H](CO)C(=O)O)cc2Cl)cccc1-c1cc(OCCCN2CC[C@@H](O)C2)cc(OCCCN2CC[C@@H](O)C2)c1 [Example 3065, (S)-2-((4-((3′,5′-bis(3-((R)-3-hydroxypyrrolidin-1-yl)propoxy)-2-methyl-[1,1′-biphenyl]-3-yl)methoxy)-5-chloro-2-((5-cyanopyridin-3-yl)methoxy)benzyl)amino)-3-hydroxypropanoic Acid] | 10 to 100 |
| CCOC(=O)[C@H](CO)NCc1cc(Cl)c(OCc2cccc(-c3cccc(OCCCN4CC[C@@H](O)C4)c3C)c2C)cc1OCc1cncc(C#N)c1 [Example 3066, (S)-ethyl 2-((5-chloro-2-((5-cyanopyridin-3-yl)methoxy)-4-((3′-(3-((R)-3-hydroxypyrrolidin-1-yl)propoxy)-2,2′-dimethyl-[1,1′-biphenyl]-3-yl)methoxy)benzyl)amino)-3-hydroxypropanoate] | 0.21 to 10 |
| COC(=O)[C@@H]1CCCCN1Cc1cc(Cl)c(OCc2cccc(-c3cccc(OCCCN4CC[C@@H](O)C4)c3C)c2C)cc1OCc1cncc(C#N)c1 [Example 3067, methyl (S)-1-(5-chloro-2-((5-cyanopyridin-3-yl)methoxy)-4-((3′-(3-((R)-3-hydroxypyrrolidin-1-yl)propoxy)-2,2′-dimethyl-[1,1′-biphenyl]-3-yl)methoxy)benzyl)piperidine-2-carboxylate] | 0.21 to 10 |
| Cc1c(COc2cc(OCc3cncc(C#N)c3)c(CN3CCCCC3(C)C(=O)O)cc2Cl)cccc1-c1cccc(OCCCN2CC[C@@H](O)C2)c1C (stereo partly drawn) [Example 3068, 1-(5-chloro-2-((5-cyanopyridin-3-yl)methoxy)-4-((3′-(3-((R)-3-hydroxypyrrolidin-1-yl)propoxy)-2,2′-dimethyl-[1,1′-biphenyl]-3-yl)methoxy)benzyl)-2-methylpiperidine-2-carboxylic Acid] | 0.21 to 10 |
| COC(=O)C1(C)CCCCN1Cc1cc(Cl)c(OCc2cccc(-c3cccc(OCCCN4CC[C@@H](O)C4)c3C)c2C)cc1OCc1cncc(C#N)c1 (stereo partly drawn) [Example 3069, methyl 1-(5-chloro-2-((5-cyanopyridin-3-yl)methoxy)-4-((3′-(3-((R)-3-hydroxypyrrolidin-1-yl)propoxy)-2,2′-dimethyl-[1,1′-biphenyl]-3-yl)methoxy)benzyl)-2-methylpiperidine-2-carboxylate] | 0.21 to 10 |
| COC(=O)C1(C)CCCCN1Cc1cc(Cl)c(OCc2cccc(-c3cccc(OCCCN4CC[C@@H](O)C4)c3Cl)c2C)cc1OCc1cncc(C#N)c1 (stereo partly drawn) [Example 3070, methyl 1-(5-chloro-4-((2′-chloro-3′-(3-((R)-3-hydroxypyrrolidin-1-yl)propoxy)-2-methyl-[1,1′-biphenyl]-3-yl)methoxy)-2-((5-cyanopyridin-3-yl)methoxy)benzyl)-2-methylpiperidine-2-carboxylate] | 0.21 to 10 |
| Cc1c(COc2ccc(CN3CCCC[C@H]3C(=O)O)cc2Cl)cccc1-c1cccc(OCCCN2CC[C@@H](O)C2)c1C [Example 3072, (S)-1-(3-chloro-4-((3′-(3-((R)-3-hydroxypyrrolidin-1-yl)propoxy)-2,2′-dimethyl-[1,1′-biphenyl]-3-yl)methoxy)benzyl)piperidine-2-carboxylic Acid] | 0.21 to 10 |
| Cc1c(COc2cc(OCc3cncc(C#N)c3)c(CN3CCCC[C@H]3C(=O)O)cc2Cl)cccc1-c1cccc(C(=O)N2CC2)c1C [Example 4001, (S)-1-(4-((3′-(aziridine-1-carbonyl)-2,2′-dimethyl-[1,1′-biphenyl]-3-yl)methoxy)-5-chloro-2-((5-cyanopyridin-3-yl)methoxy)benzyl)piperidine-2-carboxylic Acid] | 0.21 to 10 |
| Cc1c(COc2cc(OCc3cncc(C#N)c3)c(CN3CCCC[C@H]3C(=O)O)cc2Cl)cccc1-c1cccc(C(=O)NCCN2CCCC2)c1C [Example 4002, (S)-1-(5-chloro-2-((5-cyanopyridin-3-yl)methoxy)-4-((2,2′-dimethyl-3′-((2-(pyrrolidin-1-yl)ethyl)carbamoyl)-[1,1′-biphenyl]-3-yl)methoxy)benzyl)piperidine-2-carboxylic Acid] | 10 to 100 |
| Cc1c(COc2cc(OCc3cncc(C#N)c3)c(CNC(CO)CO)cc2Cl)cccc1-c1cccc(C(=O)NCCN2CCCC2)c1C [Example 4003, 3′-((2-chloro-5-((5-cyanopyridin-3-yl)methoxy)-4-(((1,3-dihydroxypropan-2-yl)amino)methyl)phenoxy)methyl)-2,2′-dimethyl-N-(2-(pyrrolidin-1-yl)ethyl)-[1,1′-biphenyl]-3-carboxamide] | 0.21 to 10 |
| Cc1c(COc2cc(OCc3cncc(C#N)c3)c(CN3CCCC[C@H]3C(=O)O)cc2Cl)cccc1-c1cccc(C(=O)NCCN2CCS(=O)(=O)CC2)c1C [Example 4004, (S)-1-(5-chloro-2-((5-cyanopyridin-3-yl)methoxy)-4-((3′-((2-(1,1-dioxidothiomorpholino)ethyl)carbamoyl)-2,2′-dimethyl-[1,1′-biphenyl]-3-yl)methoxy)benzyl)piperidine-2-carboxylic Acid] | 10 to 100 |
| Cc1c(COc2cc(OCc3cncc(C#N)c3)c(CNC(CO)CO)cc2Cl)cccc1-c1cccc(C(=O)NCCN2CCS(=O)(=O)CC2)c1C [Example 4005, 3′-((2-chloro-5-((5-cyanopyridin-3-yl)methoxy)-4-(((1,3-dihydroxypropan-2-yl)amino)methyl)phenoxy)methyl)-N-(2-(1,1-dioxidothiomorpholino)ethyl)-2,2′-dimethyl-[1,1′-biphenyl]-3-carboxamide] | 0.21 to 10 |
| CCNC(=O)c1cccc(-c2cccc(COc3cc(OCc4cncc(C#N)c4)c(CN4CCCC[C@H]4C(=O)O)cc3Cl)c2C)c1C [Example 4006, (S)-1-(5-chloro-2-((5-cyanopyridin-3-yl)methoxy)-4-((3′-(ethylcarbamoyl)-2,2′-dimethyl-[1,1′-biphenyl]-3-yl)methoxy)benzyl)piperidine-2-carboxylic Acid] | 10 to 100 |
| CCNC(=O)c1cccc(-c2cccc(COc3cc(OCc4cncc(C#N)c4)c(CN4CCC[C@H]4C(=O)O)cc3Cl)c2C)c1C [Example 4007, (5-chloro-2-((5-cyanopyridin-3-yl)methoxy)-4-((3′-(ethylcarbamoyl)-2,2′-dimethyl-[1,1′-biphenyl]-3-yl)methoxy)benzyl)-L-proline] | 100 to 2000 |
| CCNC(=O)c1cccc(-c2cccc(COc3cc(OCc4cncc(C#N)c4)c(CN4C[C@H](O)C[C@H]4C(=O)O)cc3Cl)c2C)c1C [Example 4008, (2S,4R)-1-(5-chloro-2-((5-cyanopyridin-3-yl)methoxy)-4-((3′-(ethylcarbamoyl)-2,2′-dimethyl-[1,1′-biphenyl]-3-yl)methoxy)benzyl)-4-hydroxypyrrolidine-2-carboxylic Acid] | 10 to 100 |

Source: patent US10745382B2 (BRISTOL-MYERS SQUIBB COMPANY, priority 2015, dated 2020)
